Measured values published in patent publication US10322136B2, “Composition for inhibiting growth or proliferation of chronic myelogenous leukemia cancer stem cells, and screening method therefor” (HIROSHIMA UNIVERSITY, priority 2015, dated 2019).

How the values were obtained:
Slc15A2 transporter = biological target: T1, Slc15A2 transporter (Mus musculus, UniProt Q9ES07); assay: Slc15A2 transporter activity by [3H]GlySar uptake; format: cell-based; conditions: in the presence of 100 μM cefadroxil; pH 6.0; 60 or 120 min
T1 construct: endogenous in cells; host or cells: primary mouse normal KLS+ and CML KLS+ haematopoietic cells
T1 sequence (Q9ES07 1-729): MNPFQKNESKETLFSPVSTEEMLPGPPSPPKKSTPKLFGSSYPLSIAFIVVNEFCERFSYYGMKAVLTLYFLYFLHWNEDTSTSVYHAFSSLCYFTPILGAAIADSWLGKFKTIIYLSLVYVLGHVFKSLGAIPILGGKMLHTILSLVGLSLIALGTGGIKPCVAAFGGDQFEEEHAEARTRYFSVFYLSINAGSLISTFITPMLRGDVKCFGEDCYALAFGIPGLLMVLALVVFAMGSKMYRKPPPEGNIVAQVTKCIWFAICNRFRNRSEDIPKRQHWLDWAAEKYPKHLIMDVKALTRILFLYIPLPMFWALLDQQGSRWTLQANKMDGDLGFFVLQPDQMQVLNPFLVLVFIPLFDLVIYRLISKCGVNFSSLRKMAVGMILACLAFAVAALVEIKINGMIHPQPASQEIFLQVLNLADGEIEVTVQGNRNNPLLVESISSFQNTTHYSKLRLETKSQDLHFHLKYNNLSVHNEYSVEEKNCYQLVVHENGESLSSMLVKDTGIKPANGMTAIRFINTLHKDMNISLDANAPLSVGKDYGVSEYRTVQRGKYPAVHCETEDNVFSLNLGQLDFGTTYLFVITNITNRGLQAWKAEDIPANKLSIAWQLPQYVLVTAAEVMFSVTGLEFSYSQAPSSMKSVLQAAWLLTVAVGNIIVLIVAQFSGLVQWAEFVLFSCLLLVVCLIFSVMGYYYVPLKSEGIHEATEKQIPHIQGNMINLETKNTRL
Experimental: 6. Analysis of Slc15A2 Transporter Activity by [3H]GlySar Uptake
Slc15A2 transporter activity was determined using a well-established assay measuring [3H]GlySar uptake by cells suspended in an acidic transport medium (pH 6.0). Briefly, normal KLS^+ cells or CML KLS^+ cells (1×10^5) were suspended in a transport medium (125 mM NaCl, 4.8 mM KCl, 5.6 mM D-glucose, 1.2 mM CaCl2-2H2O4, 1.2 mM KH2PO4, 1.2 mM MgSO4-7H2O and 25 mM MES, pH 6.0) in the absence or presence of 100 μM cefadroxil (Sigma-Aldrich). To initiate the transporter reaction, [3H]GlySar (Moravek Biochemicals, Brea, Calif.) was added to the cell suspension. After 60 or 120 min, the radioactivity of [3H]GlySar internalized by cells was measured using a liquid scintillation counter.

CML-KLS+ cells [1] = assay: Metabolomic analysis of dipeptides in KLS+ cells from treated CML-affected mice; format: in vivo, mouse; conditions: cefadroxil 36 mg/kg/day oral gavage for 30 days
Experimental: To detect inhibition of dipeptide uptake in vivo, immature KLS^+ cells were isolated from tet-inducible CML-affected (Tal1-tTA^+TRE-BCR-ABL1^+) mice (n=4 mice in each of the three independent experiments), and normal healthy littermate (Tal1-tTA^+) mice (n=6 mice in each of the two independent experiments) that had received vehicle or cefadroxil (36 mgKg^−1day^−1) by oral gavage for 30 days. […] In all cases, isolated cell pellets were frozen at −80° C. immediately after obtaining. Metabolomic profiling was performed by Metabolon Inc. (Durham, N.C.) using ultrahigh-performance liquid chromatography/mass spectroscopy (UPLC/MS/MS) and gas chromatography/MS (GC/MS). Data were compiled using the Metabolon LIMS (Laboratory Information Management System). The UPLC/MS/MS portion of the platform was based on a Waters Acquity UPLC (Waters) and a Q-Exactive high-resolution/accurate mass spectrometer (Thermo Scientific) interfaced with a heated electrospray ionization (HESI-II) source and Orbitrap mass analyzer. GC/MS was performed by a Trace DSQ fast-scanning single-quadrupole mass spectrometer using electron impact ionization (Thermo-Finnigan).

Raptor-Ser863 = assay: Duolink in situ PLA, Raptor-Ser863 phosphorylation in LT-CML cancer stem cells; format: cell-based, mouse; conditions: 30 min; GlySar or cefadroxil 5 μM; rapamycin 100 nM
Experimental: To examine phosphorylation of Smad2, Smad3, p38MAPK, AMPK, and S6 ribosomal protein, and Foxo3a-Smad2 and Foxo3a-Smad3 interactions, Duolink® in situ PLA assay (Olink Bioscience) was used. LT-CML stem cells, ST-CML stem cells, CD48^+, MPP, and KLS^− CML cells that were freshly isolated from CML-affected mice, and LT-normal HSCs that were freshly isolated from healthy control littermates, were immediately fixed with 4% paraformaldehyde for 30 min.
For in vitro inhibitor experiments, LT-CML stem cells were incubated in 3% O2 at 37° C. for 30 min with vehicle (control; artificial gastric fluid solution (900 ml ddH2O containing 2.0 g of NaCl, 7 ml of conc. HCl and 3.2 g of pepsin)), 5 μM Ly364947 (TGF-β type I receptor kinase Alk5 inhibitor; Merck), 5 μM SB203580 (p38MAPK inhibitor; LC Laboratories), 5 μM GlySar (dipeptide transporter inhibitor; Sigma-Aldrich), 5 μM cefadroxil (dipeptide transporter inhibitor; Sigma-Aldrich), or 100 nM rapamycin (mTORC1 inhibitor; Cell Signaling Technologies). […]
The proximate binding of these antibodies was then detected using Duolink® in situ PLA system which employs a set of two secondary antibodies in which one is conjugated to a minus strand PLA probe and the other is conjugated to a plus strand PLA probe. […] The number of fluorescent foci per single cell was quantified using Duolink®Image Tool software (Olink Bioscience).

BCR-ABL1+ disease = assay: Survival and disease recurrence of BCR-ABL1 CML-affected mice; format: in vivo, mouse; conditions: oral gavage days 8 to 90 post transplantation; IM 100 mg/kg/day; cefadroxil 36 mg/kg/day; versus vehicle
Text: BCR-ABL1 transduction/transplantation-based CML model (BCR-ABL1 CML mice) was also used. Briefly, normal KLS^+ cells (4-5×10^3 cells per recipient mouse) were transduced with the human BCR-ABL1-ires GFP retrovirus and transplanted into irradiated (9 Gy) recipient C57BL/6 mice (Sankyo-Lab Service, Tsukuba, Japan).
Treatment was delivered by oral gavage on days 8 to 90 post transplantation. To examine the effect of single administration of Ly2228820, BCR-ABL1-CML-affected mice received vehicle, or Ly2228820 (2.5 mg kg^−1 every three days; Axon Medchem) in vehicle, by oral gavage on days 8 to 60 days post transplantation.

CML-KLS+ cells [2] = assay: Number of GFP/BCR-ABL1+ CML-KLS+ cells in BM of treated CML-affected mice; format: in vivo, mouse; conditions: daily for 30 days post transplantation
Experimental: Briefly, CML-affected mice received by oral gavage for 30 days post BM transplantation as described above. The number of GFP/BCR-ABL1+CML-KLS+ cells among total GFP/BCR-ABL1+CML cells isolated from BM MNCs acquired from the two hindlimbs of treated CML-affected mice was assessed by flow cytometry. Freshly purified GFP/BCR-ABL1^+CML-KLS^+ cells (3×10^4) were then serially transplanted into a second set of lethally irradiated congenic recipient mice along with 5×10^5 normal BM MNCs derived from C57BL/6 mice. Mouse survival and disease recurrence were monitored for 90 days.

SMILES: CC1=C(C(=O)O)N2C(=O)[C@@H](NC(=O)[C@H](N)c3ccc(O)cc3)[C@H]2SC1 [cefadroxil]
- [3H]GlySar uptake by CML-KLS+ cells (Slc15A2 transporter): markedly decreased
- levels of several dipeptides in immature CML-KLS+ cells (CML-KLS+ cells [1]): decreased
- phosphorylation of Raptor-Ser863 (Raptor-Ser863): decreased phosphorylation
- BCR-ABL1+ disease onset / development (BCR-ABL1+ disease): appeared to promote disease development
- number of CML-KLS+ cells among GFP/BCR-ABL1+ CML cells from BM (CML-KLS+ cells [2]): significantly decreased
